Results published in US10463671B2, “Combination therapy for treating cancer” (Epizyme, Inc., priority 2013, dated 2019).

Columns and labels:
[1] = system: glucocorticoid signaling genes in DOHH2 cells; assay: RT2 Glucocorticoid Signaling PCR array; assay type: cell-based; settings: vs DMSO; DOHH2, 4 days
Experimental: Gene expression was normalized to array's B2M and fold change compared to DMSO was calculated using the ΔΔCt method.

[2] = system: glucocorticoid signaling genes in SU-DHL10 cells; assay: RT2 Glucocorticoid Signaling PCR array; assay type: cell-based; parameters: IL10 Ct Values / TNF Ct Values: unit not given here; settings: SUDHL10, 4 days

CCN(c1cc(-c2ccc(CN3CCOCC3)cc2)cc(C(=O)NCc2c(C)cc(C)[nH]c2=O)c1C)C1CCOCC1 [Compound 44]
FKBP5 ΔΔCT [1]: −0.032
SPSB1 ΔΔCT [1]: −0.025
ACTB Ct Values [2]: 14.828
ADARB1 Ct Values [2]: 31.215
AFF1 Ct Values [2]: 29.849
AK2 Ct Values [2]: 20.974
AMPD3 Ct Values [2]: 27.654
ANGPTL4 Ct Values [2]: 32.107
ANXA4 Ct Values [2]: 24.961
ARID5B Ct Values [2]: 28.208
ASPH Ct Values [2]: 23.837
ATF4 Ct Values [2]: 20.607
B2M Ct Values [2]: 19.147
BCL6 Ct Values [2]: 22.639
CEBPA Ct Values [2]: 28.900
CEBPB Ct Values [2]: 26.624
CREB1 Ct Values [2]: 23.809
CREB3 Ct Values [2]: 26.452
CREB3L4 Ct Values [2]: 26.139
CYB561 Ct Values [2]: 37.004
DDIT4 Ct Values [2]: 26.109
DUSP1 Ct Values [2]: 31.300
EHD3 Ct Values [2]: 26.768
FKBP5 Ct Values [2]: 22.883
FOSL2 Ct Values [2]: 32.931
GAPDH Ct Values [2]: 17.793
GDPD1 Ct Values [2]: 30.943
GOT1 Ct Values [2]: 25.306
H6PD Ct Values [2]: 28.126
HNRPLL Ct Values [2]: 23.764
HPRT1 Ct Values [2]: 20.615
IL1RN Ct Values [2]: 32.182
IL6R Ct Values [2]: 33.807
IL10 Ct Values [2]: 32.505
KLF9 Ct Values [2]: 32.525
KLF13 Ct Values [2]: 24.536
LOX Ct Values [2]: 35.385
MERTK Ct Values [2]: 34.652
MT2A Ct Values [2]: 37.225
NFKBIA Ct Values [2]: 23.654
NR3C1 Ct Values [2]: 23.754
PDCD7 Ct Values [2]: 25.123
PDP1 Ct Values [2]: 26.175
PER1 Ct Values [2]: 27.710
PER2 Ct Values [2]: 24.780
PIK3R1 Ct Values [2]: 24.661
PLEKHF1 Ct Values [2]: 28.979
POU2F1 Ct Values [2]: 25.842
POU2F2 Ct Values [2]: 25.098
RASA3 Ct Values [2]: 24.277
RGS2 Ct Values [2]: 25.587
RHOB Ct Values [2]: 27.829
RHOJ Ct Values [2]: 36.530
RPLP0 Ct Values [2]: 16.821
SESN1 Ct Values [2]: 27.480
SGK1 Ct Values [2]: 25.358
SLC10A6 Ct Values [2]: 37.060
SLC19A2 Ct Values [2]: 30.597
SLC22A5 Ct Values [2]: 30.263
SNTA1 Ct Values [2]: 27.003
SPHK1 Ct Values [2]: 27.804
SPSB1 Ct Values [2]: 26.133
STAT5A Ct Values [2]: 25.275
STAT5B Ct Values [2]: 24.281
TBL1XR1 Ct Values [2]: 21.846
TNF Ct Values [2]: 23.725
TNFAIP3 Ct Values [2]: 27.677
TSC22D3 Ct Values [2]: 28.871
USP2 Ct Values [2]: 23.434
USP54 Ct Values [2]: 27.789
VDR Ct Values [2]: 29.514
VLDLR Ct Values [2]: 32.904
ZFP36 Ct Values [2]: 26.643
ZHX3 Ct Values [2]: 26.305
ZNF2B1 Ct Values [2]: 23.857
ACTB ΔCT (B2M) ([2]; normalized to B2M): −4.319
ADARB1 ΔCT (B2M) ([2]; normalized to B2M): 12.068
AFF1 ΔCT (B2M) ([2]; normalized to B2M): 10.702
AK2 ΔCT (B2M) ([2]; normalized to B2M): 1.827
AMPD3 ΔCT (B2M) ([2]; normalized to B2M): 8.507
ANGPTL4 ΔCT (B2M) ([2]; normalized to B2M): 12.960
ANXA4 ΔCT (B2M) ([2]; normalized to B2M): 5.814
ARID5B ΔCT (B2M) ([2]; normalized to B2M): 9.061
ASPH ΔCT (B2M) ([2]; normalized to B2M): 4.690
ATF4 ΔCT (B2M) ([2]; normalized to B2M): 1.460
B2M ΔCT (B2M) ([2]; normalized to B2M): 0.000
BCL6 ΔCT (B2M) ([2]; normalized to B2M): 3.492
CEBPA ΔCT (B2M) ([2]; normalized to B2M): 9.753
CEBPB ΔCT (B2M) ([2]; normalized to B2M): 7.477
CREB1 ΔCT (B2M) ([2]; normalized to B2M): 4.662
CREB3L4 ΔCT (B2M) ([2]; normalized to B2M): 6.992
CREB3 ΔCT (B2M) ([2]; normalized to B2M): 7.305
CYB561 ΔCT (B2M) ([2]; normalized to B2M): 17.857
DDIT4 ΔCT (B2M) ([2]; normalized to B2M): 6.962
DUSP1 ΔCT (B2M) ([2]; normalized to B2M): 12.153
EHD3 ΔCT (B2M) ([2]; normalized to B2M): 7.621
FKBP5 ΔCT (B2M) ([2]; normalized to B2M): 3.736
FOSL2 ΔCT (B2M) ([2]; normalized to B2M): 13.784
GAPDH ΔCT (B2M) ([2]; normalized to B2M): −1.354
GDPD1 ΔCT (B2M) ([2]; normalized to B2M): 11.796
GOT1 ΔCT (B2M) ([2]; normalized to B2M): 6.159
H6PD ΔCT (B2M) ([2]; normalized to B2M): 8.979
HNRPLL ΔCT (B2M) ([2]; normalized to B2M): 4.617
HPRT1 ΔCT (B2M) ([2]; normalized to B2M): 1.468
IL1RN ΔCT (B2M) ([2]; normalized to B2M): 13.035
IL6R ΔCT (B2M) ([2]; normalized to B2M): 14.660
IL10 ΔCT (B2M) ([2]; normalized to B2M): 13.358
KLF9 ΔCT (B2M) ([2]; normalized to B2M): 13.378
KLF13 ΔCT (B2M) ([2]; normalized to B2M): 5.389
LOX ΔCT (B2M) ([2]; normalized to B2M): 16.238
MERTK ΔCT (B2M) ([2]; normalized to B2M): 15.505
MT2A ΔCT (B2M) ([2]; normalized to B2M): 18.078
NFKBIA ΔCT (B2M) ([2]; normalized to B2M): 4.507
NR3C1 ΔCT (B2M) ([2]; normalized to B2M): 4.617
PDCD7 ΔCT (B2M) ([2]; normalized to B2M): 5.976
PDP1 ΔCT (B2M) ([2]; normalized to B2M): 7.028
PER1 ΔCT (B2M) ([2]; normalized to B2M): 8.563
PER2 ΔCT (B2M) ([2]; normalized to B2M): 5.633
PIK3R1 ΔCT (B2M) ([2]; normalized to B2M): 5.514
PLEKHF1 ΔCT (B2M) ([2]; normalized to B2M): 9.832
POU2F1 ΔCT (B2M) ([2]; normalized to B2M): 6.695
POU2F2 ΔCT (B2M) ([2]; normalized to B2M): 5.951
RASA3 ΔCT (B2M) ([2]; normalized to B2M): 5.130
RGS2 ΔCT (B2M) ([2]; normalized to B2M): 6.440
RHOB ΔCT (B2M) ([2]; normalized to B2M): 8.682
RHOJ ΔCT (B2M) ([2]; normalized to B2M): 17.383
RPLP0 ΔCT (B2M) ([2]; normalized to B2M): −2.326
SESN1 ΔCT (B2M) ([2]; normalized to B2M): 8.333
SGK1 ΔCT (B2M) ([2]; normalized to B2M): 6.211
SLC10A6 ΔCT (B2M) ([2]; normalized to B2M): 17.913
SLC19A2 ΔCT (B2M) ([2]; normalized to B2M): 11.450
SLC22A5 ΔCT (B2M) ([2]; normalized to B2M): 11.116
SNTA1 ΔCT (B2M) ([2]; normalized to B2M): 7.856
SPHK1 ΔCT (B2M) ([2]; normalized to B2M): 8.657
SPSB1 ΔCT (B2M) ([2]; normalized to B2M): 6.986
STAT5A ΔCT (B2M) ([2]; normalized to B2M): 6.128
STAT5B ΔCT (B2M) ([2]; normalized to B2M): 5.134
TBL1XR1 ΔCT (B2M) ([2]; normalized to B2M): 2.699
TNF ΔCT (B2M) ([2]; normalized to B2M): 4.578
TNFAIP3 ΔCT (B2M) ([2]; normalized to B2M): 8.530
TSC22D3 ΔCT (B2M) ([2]; normalized to B2M): 9.724
USP2 ΔCT (B2M) ([2]; normalized to B2M): 4.287
USP54 ΔCT (B2M) ([2]; normalized to B2M): 8.642
VDR ΔCT (B2M) ([2]; normalized to B2M): 10.367
VLDLR ΔCT (B2M) ([2]; normalized to B2M): 13.757
ZFP36 ΔCT (B2M) ([2]; normalized to B2M): 7.496
ZHX3 ΔCT (B2M) ([2]; normalized to B2M): 7.158
ZNF2B1 ΔCT (B2M) ([2]; normalized to B2M): 4.710
ARID5B ΔΔCT ([2]; vs DMSO): 0.650
EHD3 ΔΔCT ([2]; vs DMSO): −0.885
FKBP5 ΔΔCT ([2]; vs DMSO): 0.042
PIK3R1 ΔΔCT ([2]; vs DMSO): 0.431
SLC19A2 ΔΔCT ([2]; vs DMSO): −1.143
USP54 ΔΔCT ([2]; vs DMSO): −0.064
